# Assay results: paper PMC10244465, “Native American ataxia medicines rescue ataxia-linked mutant potassium channel activity via binding to the voltage sensing domain” (Nature Communications, 2023)
# Tests used:
# Format in all cases: cell-based
# [1] = molecular target: T1, Kv1.1-I182S, E192I, K195N (Kv1.1–3 M) (Homo sapiens, UniProt Q09470, E191I/I183S/K196N); test: TEVC of oocytes expressing Kv1.1-3M
# T1 construct: expressed in transfected cells; host or cells: Xenopus laevis oocytes
# Source text: The functional data support a Kv1.1 gallic acid-binding site similar to that predicted by the MD simulation (Fig. 10f; Supplementary Movie 1).
# Wild-type and mutant Kv1 cDNAs were generated (Genscript, Piscataway, NJ) in the pTLNx expression vector. As previously described, we generated cRNA transcripts encoding human Kv1.1 (wild-type and mutant) and Kv1.2, by in vitro transcription using the mMessage mMachine kit (Thermo Fisher Scientific), after vector linearization, from cDNA sub-cloned into plasmids (pTLNx) incorporating Xenopus laevis β-globin 5’ and 3’ UTRs flanking the coding region to enhance translation and cRNA stability. We injected defolliculated stage V and VI Xenopus laevis oocytes (Xenoocyte, Dexter, MI, US) with Kv1 cRNAs (1–5 ng). We incubated the oocytes at 16 °C in ND96 oocyte storage solution containing penicillin and streptomycin, with daily washing, for 2 days prior to two-electrode voltage-clamp (TEVC) recording.
# (§1) We performed TEVC at room temperature using an OC-725C amplifier (Warner Instruments, Hamden, CT) and pClamp10 software (Molecular Devices, Sunnyvale, CA) 2 days after cRNA injection as described in the section above. For recording, oocytes we placed in a small-volume oocyte bath (Warner) and viewed with a dissection microscope. We sourced chemicals from Sigma. We studied effects of plant extracts and of compounds, solubilized directly in bath solution (in mM): 96 NaCl, 4 KCl, 1 MgCl2, 1 CaCl2, 10 HEPES (pH 7.6). […] We recorded currents in response to voltage pulses between −80 mV and +40 mV at 10 or 20 mV intervals from a holding potential of −80 mV, to yield current-voltage relationships and examine activation kinetics. To calculate the voltage dependence of activation (V0.5), tail currents were recorded at a voltage pulse of −50 mV immediately following prepulse voltages between −80 mV and +40 mV. We analyzed data using Clampfit (Molecular Devices) and Graphpad Prism software (GraphPad, San Diego, CA, USA), stating values as mean ± SEM. […]
# [2] = molecular target: T2, Kv1.1/Kv1.1-E283K/Kv1.2 channels (Homo sapiens, UniProt Q09470, E283K); test: TEVC of oocytes co-injected 1:1:2 Kv1.1:Kv1.1-E283K:Kv1.2 cRNA; conditions: even at 0.1 µM
# T2 construct: expressed in transfected cells; host or cells: Xenopus laevis oocytes co-injected 1:1:2 Kv1.1:Kv1.1-E283K:Kv1.2 cRNA
# Source text: (§2) Kv1.1 α subunits form heteromeric tetramers with other Kv1 subfamily α subunits, including Kv1.2, in the […] region of axons and some terminals, in the hippocampus (perforant input from entorhinal cortex, mossy fiber projections from granule cells to CA3, and CA3 axon collaterals)[7]–[11]. We therefore tested effects of gallic acid on Kv1.1/Kv1.2 heteromers generated in oocytes by co-injection of 1:1:2 parts Kv1.1:Kv1.1-E283K:Kv1.2 or Kv1.1:Kv1.1-L155P:Kv1.2 cRNA to approximate the Kv1.1/Kv1.2 heteromeric channel composition in EA1 patients heterozygous for either mutant KCNA1 allele. […]
# as §1, with “above.” for “above. For recording, oocytes we placed in a small-volume oocyte bath (Warner) and viewed with a dissection microscope. We sourced chemicals from Sigma. We studied effects of plant extracts and of compounds, solubilized directly in bath solution (in mM): 96 NaCl, 4 KCl, 1 MgCl2, 1 CaCl2, 10 HEPES (pH 7.6).”
# [3] = molecular target: T3, Kv1.1/Kv1.1-L155P/Kv1.2 channels (Homo sapiens, UniProt Q09470, L155P); test: TEVC of oocytes co-injected 1:1:2 Kv1.1:Kv1.1-L155P:Kv1.2 cRNA; conditions: at 0.1 µM and higher
# T3 construct: expressed in transfected cells; host or cells: Xenopus laevis oocytes co-injected 1:1:2 Kv1.1:Kv1.1-L155P:Kv1.2 cRNA
# Source text: as §2
# as §1, with “above.” for “above. For recording, oocytes we placed in a small-volume oocyte bath (Warner) and viewed with a dissection microscope. We sourced chemicals from Sigma. We studied effects of plant extracts and of compounds, solubilized directly in bath solution (in mM): 96 NaCl, 4 KCl, 1 MgCl2, 1 CaCl2, 10 HEPES (pH 7.6).”
# T1 sequence (Q09470 whole entry I183S/E191I/K196N): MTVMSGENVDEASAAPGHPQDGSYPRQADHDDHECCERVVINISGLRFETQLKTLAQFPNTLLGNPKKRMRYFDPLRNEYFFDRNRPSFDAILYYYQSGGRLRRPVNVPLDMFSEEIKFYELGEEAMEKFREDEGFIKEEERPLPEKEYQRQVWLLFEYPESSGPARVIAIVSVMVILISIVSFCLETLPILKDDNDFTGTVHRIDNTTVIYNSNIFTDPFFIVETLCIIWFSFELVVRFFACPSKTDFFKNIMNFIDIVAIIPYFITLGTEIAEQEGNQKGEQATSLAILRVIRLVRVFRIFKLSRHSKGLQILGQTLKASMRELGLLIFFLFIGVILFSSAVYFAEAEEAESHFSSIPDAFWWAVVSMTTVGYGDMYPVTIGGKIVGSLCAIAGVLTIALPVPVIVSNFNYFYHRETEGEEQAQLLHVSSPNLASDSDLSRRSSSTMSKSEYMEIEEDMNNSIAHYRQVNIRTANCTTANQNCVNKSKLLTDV
# T2 sequence (Q09470 whole entry, stated change not applied): as the sequence (Q09470 whole entry I183S/E191I/K196N) above, with S183I, I191E, N196K counted along it
# T2 sequence (Q09470 whole entry E283K): as the sequence (Q09470 whole entry I183S/E191I/K196N) above, with S183I, I191E, N196K, E283K counted along it
# T2 sequence (P16389 whole entry partner): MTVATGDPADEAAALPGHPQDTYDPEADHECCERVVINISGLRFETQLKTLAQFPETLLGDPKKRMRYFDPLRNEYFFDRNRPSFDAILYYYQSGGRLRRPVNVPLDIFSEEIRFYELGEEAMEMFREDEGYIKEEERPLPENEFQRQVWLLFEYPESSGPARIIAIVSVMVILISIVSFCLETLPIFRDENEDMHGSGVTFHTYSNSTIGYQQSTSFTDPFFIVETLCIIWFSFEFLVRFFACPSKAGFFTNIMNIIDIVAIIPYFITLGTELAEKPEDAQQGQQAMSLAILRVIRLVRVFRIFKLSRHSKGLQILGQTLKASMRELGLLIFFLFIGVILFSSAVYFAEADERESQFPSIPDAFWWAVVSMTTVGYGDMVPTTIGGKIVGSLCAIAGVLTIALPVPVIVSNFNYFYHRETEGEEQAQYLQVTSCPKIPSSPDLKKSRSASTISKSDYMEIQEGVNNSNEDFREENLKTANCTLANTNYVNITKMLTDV
# T3 sequence (Q09470 whole entry, stated change not applied): as the sequence (Q09470 whole entry I183S/E191I/K196N) above, with S183I, I191E, N196K counted along it
# T3 sequence (Q09470 whole entry L155P): as the sequence (Q09470 whole entry I183S/E191I/K196N) above, with L155P, S183I, I191E, N196K counted along it
# T3 sequence (P16389 whole entry partner): as the sequence (P16389 whole entry partner) above
compound,measurement,setting,value
O=C(O)c1cc(O)c(O)c(O)c1 [gallic acid],EC50,[1],345 ± 38 nM
same,EC50 for peak current augmentation,[1]; at −40 mV,not measurable
same,maximal peak current augmentation compared to Kv1.1,[1]; at −40 mV,reduced fivefold
same,rescue of channel activity,[2],highly effective at rescuing
same,rescue of channel activity,[3],highly effective at rescuing
